SMILES strings stand for the structures. Where “and” joins values, the source holds several entries; their conditions need not be identical. Identical values can stand only once. Calls of active or inactive are those of the source.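 How the source made its calls: active means fitted curve reaching 40% activation at or below the sample's highest valid tested dose; inconclusive means flat fit between 30% and 70%, or poor fit; inactive means the rest, including opposite-direction activity.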 Some results are limits rather than exact numbers.

Chain of Kelch-like ECH-associated protein 1 (Homo sapiens) + Nuclear factor erythroid 2-related factor 2 (Homo sapiens) (Q14145 whole entry, looked up): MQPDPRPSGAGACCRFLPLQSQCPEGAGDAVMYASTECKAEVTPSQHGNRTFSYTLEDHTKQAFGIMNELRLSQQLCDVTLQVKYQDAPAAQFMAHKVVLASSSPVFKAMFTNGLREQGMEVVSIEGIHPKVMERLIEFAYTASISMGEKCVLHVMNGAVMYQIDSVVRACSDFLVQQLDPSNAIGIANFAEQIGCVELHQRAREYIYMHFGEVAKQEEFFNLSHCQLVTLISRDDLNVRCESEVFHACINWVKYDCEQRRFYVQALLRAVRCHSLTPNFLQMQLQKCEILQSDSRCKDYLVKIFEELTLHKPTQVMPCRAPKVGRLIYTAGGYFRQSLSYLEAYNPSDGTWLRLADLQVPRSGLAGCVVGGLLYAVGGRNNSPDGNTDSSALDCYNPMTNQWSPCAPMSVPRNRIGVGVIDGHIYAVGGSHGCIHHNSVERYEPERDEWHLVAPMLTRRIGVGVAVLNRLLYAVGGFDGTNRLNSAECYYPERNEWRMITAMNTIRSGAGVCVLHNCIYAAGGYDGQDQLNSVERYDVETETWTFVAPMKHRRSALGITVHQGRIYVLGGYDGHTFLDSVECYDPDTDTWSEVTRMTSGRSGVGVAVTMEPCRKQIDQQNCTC
Chain of Kelch-like ECH-associated protein 1 (Homo sapiens) + Nuclear factor erythroid 2-related factor 2 (Homo sapiens) (Q16236 whole entry, looked up): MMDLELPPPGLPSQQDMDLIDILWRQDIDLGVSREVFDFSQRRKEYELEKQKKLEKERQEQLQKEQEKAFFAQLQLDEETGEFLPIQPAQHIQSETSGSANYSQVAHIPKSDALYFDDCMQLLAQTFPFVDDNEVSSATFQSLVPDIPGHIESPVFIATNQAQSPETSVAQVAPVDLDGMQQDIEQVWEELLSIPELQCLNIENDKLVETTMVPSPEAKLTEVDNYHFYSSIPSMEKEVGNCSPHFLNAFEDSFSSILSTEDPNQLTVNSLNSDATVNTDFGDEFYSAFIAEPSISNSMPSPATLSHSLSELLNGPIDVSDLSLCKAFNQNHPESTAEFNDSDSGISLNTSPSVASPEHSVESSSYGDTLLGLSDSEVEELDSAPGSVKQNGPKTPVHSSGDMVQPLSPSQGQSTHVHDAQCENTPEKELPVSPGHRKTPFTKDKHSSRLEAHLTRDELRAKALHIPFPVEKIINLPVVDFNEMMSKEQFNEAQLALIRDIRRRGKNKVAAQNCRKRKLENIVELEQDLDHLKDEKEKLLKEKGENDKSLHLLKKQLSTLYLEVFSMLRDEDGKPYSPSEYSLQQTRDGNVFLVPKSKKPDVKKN

One assay concerns the target Kelch-like ECH-associated protein 1 (Homo sapiens) + Nuclear factor erythroid 2-related factor 2 (Homo sapiens) (UniProt Q14145+Q16236). Put plainly: Nrf2 nuclear translocation activators in cells, dose response, orthogonal assay for Keap1-Nrf2 interaction inhibitor project, PathHunter, U2OS cells, dry powder (AID 651833). The following applies: beta-gal luminescence, 3 h.
On to `CC(C)OC(=O)C(C(=O)C(F)(F)F)c1cc(NS(=O)(=O)c2ccccc2)c2ccccc2c1O` (configuration not stated), for which the AC40 is 20 µM.
The same measure, in the same setting: with `O=C(NC[C@@H]1c2ccccc2CCN1C(=O)[C@@H]1CCCC[C@@H]1C(=O)O)c1ccc(CCl)cc1` the figure was > 38 µM (inactive); with `O=C(Oc1cc(CN2C(=O)c3ccccc3C2=O)c2ccccc2[n+]1[O-])c1cccc(Cl)c1`, 30 µM; with `Cc1ccc(S(=O)(=O)NNc2nc(N3CC(O)CC3C(=O)O)nc3ccccc23)cc1` (configuration not stated), > 38 µM (inactive).
With `Cc1cc(C)c(S(=O)(=O)Nc2cc(C(C(=O)OC(C)C)C(=O)C(F)(F)F)c(O)c3ccccc23)c(C)c1` (configuration not stated), the AC40 is 1.1 µM.
On the same count and under the same terms, then `Cc1cc(C)c(S(=O)(=O)Nc2nc(C(C(=O)OC(C)C)C(=O)C(F)(F)F)nc3ccccc23)c(C)c1` (configuration not stated), with > 38 µM (inactive); and `Cc1ccc(S(=O)(=O)Nc2cc(C(C(=O)OC(C)C)C(=O)C(F)(F)F)c(O)c3ccccc23)c(C)c1` (configuration not stated), with 5.12 µM.
The same measure, in the same setting: then `Cc1ccc(S(=O)(=O)Nc2cc(C(C(=O)OC(C)C)C(=O)C(F)(F)F)c(O)c3ccccc23)cc1` (configuration not stated), with 12.1 µM; and `O=C(NC[C@@H]1c2ccccc2CCN1C(=O)[C@@H]1CCCC[C@@H]1C(=O)O)OCC1c2ccccc2-c2ccccc21`, with > 38 µM (inactive).
The same measure, in the same setting: with `Cc1ccc(S(=O)(=O)NC2=CC(=N[C@@H](C)C(=O)OC(C)(C)C)C(=O)c3ccccc32)c(C)c1` the figure was > 38 µM (inactive); with `O=C(O)C1CCCCC1C(=O)N1CCc2ccccc2C1CN1Cc2ccccc2C1=O` (configuration not stated), > 38 µM (inactive).
In the case of `O=C(O)[C@H]1C2C=CC(C2)[C@H]1C(=O)N1CCc2ccccc2C1CN1C(=O)c2ccccc2C1=O` (some centres not stated), the AC40 is > 38 µM (inactive).
Same read-out and setting: then `COC(=O)C(C(=O)OC)c1cc(NS(=O)(=O)c2c(C)cc(C)cc2C)c2ccccc2c1O`, with 4.21 µM.
Take `Cc1ccccc1S(=O)(=O)Nc1cc(C(C(=O)OC(C)C)C(=O)C(F)(F)F)c(O)c2ccccc12` (configuration not stated): the AC40 is 6.97 µM.
In the case of `Cc1ccc(S(=O)(=O)NNc2nc(C(C(=O)OC(C)C)C(=O)C(F)(F)F)nc3ccccc23)cc1` (configuration not stated), the AC40 is 18.5 µM.
`O=C(O)Cc1ccccc1C(=O)N1CCc2ccccc2[C@H]1CN1C(=O)c2ccccc2C1=O`: the AC40 is > 38 µM (inactive).

The same assay, now with this note: beta-gal luminescence, 3 h, at 10 µM (top of the series).
Regarding `O=C1c2ccccc2C(=O)N1CC1c2ccccc2CCN1C(=O)Cc1ccccc1` (configuration not stated), the activation is -2.75% (inactive).

Staying with this assay, now noted: beta-gal luminescence, 3 h, at 38 µM (top of the series).
Turning to `O=C1c2ccccc2C(=O)N1C[C@@H]1c2ccccc2CCN1C(=O)C1CCCCC1`, the activation is 0.733% (inactive).
The same measure, in the same setting: with `O=C1c2ccccc2C(=O)N1C[C@H]1NCCc2ccccc21` the figure was -2.67% (inactive); with `O=S(=O)(Nc1nc(NCC2CCCCC2)nc2ccccc12)c1ccccc1`, 3.97% (inactive); with `Cc1cc(C)c(S(=O)(=O)Nc2ncnc3ccccc23)c(C)c1`, 2.9% (inactive).
On the same count and under the same terms, then `O=C(O)[C@H]1CCCC[C@H]1C(=O)N1CCc2ccccc2C1` (racemic), with -0.662% (inactive).
Still for that read-out and setting: then `O=C(NC[C@@H]1c2ccccc2CCN1C(=O)[C@@H]1CCCC[C@@H]1C(=O)O)c1ccc(CN2CCOCC2)cc1`, with 2.86% (inactive); and `O=C(O)[C@H]1CCCC[C@H]1C(=O)N1CCc2ccccc2[C@H]1CNS(=O)(=O)c1ccc([N+](=O)[O-])cc1`, with 6.37% (inactive); and `O=C(O)c1ccccc1C(=O)N1CCc2ccccc2C1CN1C(=O)c2ccccc2C1=O` (configuration not stated), with 4.54% (inactive).
For `O=C(O)C1CCCCC1C(=O)Nc1ccccc1CN1C(=O)c2ccccc2C1=O` (configuration not stated), the activation is -2.72% (inactive).
On the same count and under the same terms, then `O=C(O)C1CCCCC1C(=O)N1CCc2ccccc2[C@H]1C(=O)NCCc1ccccc1` (some centres not stated), with 0.849% (inactive).
Still for that read-out and setting: then `NC(=O)c1ccccc1C(=O)NC[C@@H]1c2ccccc2CCN1C(=O)[C@@H]1CCCC[C@@H]1C(=O)O`, with 8.88% (inactive).
For `CC(C)CNc1nc(NS(=O)(=O)c2ccccc2)c2ccccc2n1`, the activation was 7.06% (inactive).
On the same count and under the same terms, then `O=C(O)C1CCCCC1C(=O)N1CCc2ccccc2[C@H]1C(=O)NC12CC3CC(CC(C3)C1)C2` (some centres not stated), with -2.47% (inactive); and `CCOC(=O)C(C(=O)OCC)c1cc(CNS(=O)(=O)c2ccc(C)cc2C)c2ccccc2n1`, with 1.4% (inactive); and `O=C(NCCCN1CCOCC1)c1ccccc1C(=O)NC[C@@H]1c2ccccc2CCN1C(=O)C1CCCCC1C(=O)O` (some centres not stated), with 4.62% (inactive).
Regarding `O=C(O)c1ccccc1C(=O)NC[C@@H]1c2ccccc2CCN1C(=O)[C@@H]1CCCC[C@@H]1C(=O)O`, the activation is 0.179% (inactive).
Turning to `O=C(O)[C@@H]1CCCN1C(=O)N1CCc2ccccc2[C@H]1CN1C(=O)c2ccccc2C1=O`, the activation was 5.41% (inactive).
Regarding `O=C(O)/C=C\C(=O)N1CCc2ccccc2C1CN1C(=O)c2ccccc2C1=O` (configuration not stated), the activation was 13% (inactive).
On the same count and under the same terms, with `Cc1cc(C)c(S(=O)(=O)Nc2nc(N(C)C)nc3ccccc23)c(C)c1` the figure was 2.02% (inactive).
On the same count and under the same terms, with `Cc1ccc(S(=O)(=O)NC[C@@H]2c3ccccc3CCN2C(=O)[C@@H]2CCCC[C@@H]2C(=O)O)c(C)c1` the figure was 4.66% (inactive); with `O=C(O)C1CCCCC1C(=O)N1CCCCC1CN1C(=O)c2ccccc2C1=O` (configuration not stated), -1.78% (inactive); with `O=C1c2ccccc2C(=O)N1C[C@@H]1c2ccccc2CCN1C(=O)OCc1ccccc1`, 1.45% (inactive).
Still for that read-out and setting: with `O=C(NC[C@@H]1c2ccccc2CCN1C(=O)[C@@H]1CCCC[C@@H]1C(=O)O)c1ccccc1CO` the figure was 2.2% (inactive); with `O=C(O)CC(=O)N1CCc2ccccc2C1CN1C(=O)c2ccccc2C1=O` (configuration not stated), 2.73% (inactive).
As to `COC(=O)CNc1nc(NS(=O)(=O)c2c(C)cc(C)cc2C)c2ccccc2n1`, the activation is 3.66% (inactive).
Same read-out and setting: with `COC(=O)[C@@H]1CCCC[C@@H]1C(=O)N1CCc2ccccc2[C@H]1CN1C(=O)c2ccccc2C1=O` the figure was -2.72% (inactive).
Same read-out and setting: then `Cc1cc(C)c(S(=O)(=O)Nc2cc(C(C(=O)OCc3ccccc3)C(=O)OCc3ccccc3)c(O)c3ccccc23)c(C)c1`, with 5.34% (inactive).
Same read-out and setting: with `O=C(O)C1CCCCC1C(=O)N1CCc2ccccc2C1CN1C(=O)c2ccccc2S1(=O)=O` (configuration not stated) the figure was 13.7% (inactive); with `COc1ccccc1CCNC(=O)[C@@H]1c2ccccc2CCN1C(=O)C1CCCCC1C(=O)O` (some centres not stated), -2.36% (inactive) and -1.69% (inactive); with `COC(=O)C1CCCCC1C(=O)N1CCc2ccccc2C1CN1C(=O)c2ccccc2C1=O` (configuration not stated), 1.27% (inactive).
`O=C(NCCO)c1ccccc1C(=O)NC[C@@H]1c2ccccc2CCN1C(=O)C1CCCCC1C(=O)O` (some centres not stated): the activation was 4.09% (inactive).
On the same count and under the same terms, then `O=C(O)C1CCCCC1C(=O)N1CCc2ccccc2C1c1ccccc1` (configuration not stated), with -2.53% (inactive); and `O=C(O)CCC(=O)N1CCc2ccccc2C1CN1C(=O)c2ccccc2C1=O` (configuration not stated), with 1.36% (inactive).
As to `CCOC(=O)Cc1nc(NS(=O)(=O)c2c(C)cc(C)cc2C)c2ccccc2n1`, the activation is 8.62% (inactive).
Take `CCOC(=O)C(C(=O)OCC)c1cc(CN2C(=O)c3ccccc3C2=O)c2ccccc2n1`: the activation is 9.41% (inactive).
In the case of `O=C(O)[C@H]1CCCC[C@H]1C(=O)N1CCc2ccccc2[C@H]1CNc1nc(Cl)nc2ccccc12`, the activation is 5.4% (inactive).
Still for that read-out and setting: with `O=C(O)C1CCCCC1C(=O)NCC1c2ccccc2CCN1C(=O)Cc1ccccc1` (configuration not stated) the figure was 0.036% (inactive); with `O=C(O)CCCC(=O)N1CCc2ccccc2C1CN1C(=O)c2ccccc2C1=O` (configuration not stated), 3.41% (inactive); with `O=C(O)C1CCCCC1C(=O)N1CCc2ccccc2C1CN1C(=O)[C@H]2CCCC[C@H]2C1=O` (some centres not stated), 4.38% (inactive).
Same read-out and setting: with `O=C1c2ccccc2C(=O)N1CC1=NCCc2ccccc21` the figure was -0.067% (inactive); with `O=C(O)C1CCCCC1C(=O)N1CCc2ccccc2C1CN1C(=O)Cc2ccccc2C1=O` (configuration not stated), 8.47% (inactive).
Same read-out and setting: with `O=C(NCCc1ccccc1)c1ccccc1C(=O)NC[C@@H]1c2ccccc2CCN1C(=O)C1CCCCC1C(=O)O` (some centres not stated) the figure was 5.09% (inactive); with `C[C@H](NC(=O)C1CCCC[C@H]1C(=O)O)c1ccccc1` (mixture of isomers), -4.29% (inactive).
On to `CCOC(=O)C(C(=O)OCC)c1nc(NS(=O)(=O)c2c(C)cc(C)cc2C)c2ccccc2n1`, for which the activation is 1.28% (inactive).
Still for that read-out and setting: with `O=C(O)[C@H]1CCCC[C@H]1C(=O)NC(CN1C(=O)c2ccccc2C1=O)c1ccccc1` (some centres not stated) the figure was -1.98% (inactive); with `O=C(O)[C@H]1CCCC[C@H]1C(=O)N1CCc2ccccc2C1CCN1C(=O)c2ccccc2C1=O` (some centres not stated), 0.812% (inactive) and -0.193% (inactive).
Still for that read-out and setting: then `Cc1ccc(S(=O)(=O)NNc2nc(NCC(N)=O)nc3ccccc23)cc1`, with 3% (inactive).
Same read-out and setting: with `COC(=O)[C@@H]1CCCC[C@@H]1C(=O)N1CCc2ccccc2[C@@H]1CN1C(=O)c2ccccc2C1=O` the figure was -2.15% (inactive); with `C[C@@H](NC(=O)C1CCCC[C@H]1C(=O)O)c1ccccc1` (mixture of isomers), -1.8% (inactive).
On to `COC(=O)[C@H]1CCCC[C@H]1C(=O)N1CCc2ccccc2[C@H]1CN1C(=O)c2ccccc2C1=O`, for which the activation is -2.1% (inactive).
On the same count and under the same terms, with `NC(=O)[C@H]1CCCC[C@H]1C(=O)N1CCc2ccccc2[C@H]1CN1C(=O)c2ccccc2C1=O` the figure was 4.54% (inactive); with `O=C(O)[C@H]1CCCC[C@H]1C(=O)N1CCc2ccccc2[C@H]1CNS(=O)(=O)c1ccccc1`, 7.86% (inactive).
With `O=C(O)[C@H]1CCCC[C@H]1C(=O)N1CCC2=C(CCCC2)C1CN1C(=O)c2ccccc2C1=O` (some centres not stated), the activation was 11% (inactive) and -0.217% (inactive).
Same read-out and setting: with `Cc1cc(C)c(S(=O)(=O)Nc2nc(NCCO)nc3ccccc23)c(C)c1` the figure was 3.36% (inactive); with `O=C(Cc1ccccc1)NC[C@@H]1c2ccccc2CCN1C(=O)[C@@H]1CCCC[C@@H]1C(=O)O`, 6.26% (inactive).

The record behind these values is PubChem BioAssay AID651833 (Broad Institute, 2012).
